Test results taken from ChEMBL document CHEMBL1201862, “PubChem BioAssay data set” (2004).
The source made the active and inactive calls. Rule as the data show it, for most assays here: actives have a measured EC50 and inactives only a lower limit.

Legend:
H9c2 = experiment: cells; format: functional, cell-based; conditions: Rattus norvegicus, H9c2, Myocardium;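 also: confirmatory concentration-response retest of ultra-high-throughput screening hits for modulation of myocardial damage; cell death induced by hydrogen peroxide oxidative stress; compound pretreatment for 60 min then peroxide exposure for 2 h; potency is for protecting the cells against peroxide damage rather than for killing them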
[1] = Luminescence Cell-Based Dose Response HTS to Identify Activators of Luciferase Translation or Activity in H4 […] Cells. [Related pubchem assays: 1829 (Project Summary), 1814 (Primary HTS)]; format: functional
[2] = Luminescence Cell-Based Dose Confirmation HTS to Identify Activators of 5'UTR Stem-Loop Driven Alpha-Synuclein mRNA Translation in H4 Neuroglioblastoma Cells. [Related pubchem assays: 1829 (Project Summary), 1814 (Primary HTS)]; format: functional
H4 = experiment: Luminescence Cell-Based Dose Response HTS to Identify Activators of 5'UTR Stem-Loop Driven Prion Protein mRNA Translation in H4 Neuroglioblastoma Cells. [Related pubchem assays: 1829 (Project Summary), 1814 (Primary HTS)]; format: functional; conditions: Homo sapiens
[3] = target: T1, Calpain-2 catalytic subunit (Sus scrofa, UniProt P43367); experiment: m-calpain protease blockers, concentration series – biochemical, fluorogenic peptide substrate, dose response (AID 1420); format: functional
T1 sequence (P43367 whole entry): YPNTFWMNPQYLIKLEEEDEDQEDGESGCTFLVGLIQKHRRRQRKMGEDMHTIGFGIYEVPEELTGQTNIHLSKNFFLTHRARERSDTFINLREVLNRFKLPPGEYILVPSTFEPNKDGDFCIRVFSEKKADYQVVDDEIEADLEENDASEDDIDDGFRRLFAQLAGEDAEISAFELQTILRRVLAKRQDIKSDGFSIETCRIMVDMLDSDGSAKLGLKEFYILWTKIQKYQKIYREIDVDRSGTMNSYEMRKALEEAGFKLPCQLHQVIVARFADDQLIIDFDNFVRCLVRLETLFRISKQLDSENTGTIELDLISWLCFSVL

[4] = viability of uninfected HEp-2 cells – cell-based, HTS, cytotoxicity control for RSV inhibitor project, dose response (AID 2410); format: functional; conditions: human respiratory syncytial virus
[5] = Luminescence Cell-Based Dose Confirmation HTS to Identify Inhibitors of Platelet Dense Granule Release. [Related pubchem assays: 1663 (Primary HTS), 1678 (Summary of Project)]; format: functional
[6] = target: Luciferin 4-monooxygenase (Photinus pyralis, UniProt P08659); experiment: inhibition of purified Photinus pyralis luciferase – biochemical, luminescence, dose response (AID 1891)
Sequence of Luciferin 4-monooxygenase (P08659 whole entry): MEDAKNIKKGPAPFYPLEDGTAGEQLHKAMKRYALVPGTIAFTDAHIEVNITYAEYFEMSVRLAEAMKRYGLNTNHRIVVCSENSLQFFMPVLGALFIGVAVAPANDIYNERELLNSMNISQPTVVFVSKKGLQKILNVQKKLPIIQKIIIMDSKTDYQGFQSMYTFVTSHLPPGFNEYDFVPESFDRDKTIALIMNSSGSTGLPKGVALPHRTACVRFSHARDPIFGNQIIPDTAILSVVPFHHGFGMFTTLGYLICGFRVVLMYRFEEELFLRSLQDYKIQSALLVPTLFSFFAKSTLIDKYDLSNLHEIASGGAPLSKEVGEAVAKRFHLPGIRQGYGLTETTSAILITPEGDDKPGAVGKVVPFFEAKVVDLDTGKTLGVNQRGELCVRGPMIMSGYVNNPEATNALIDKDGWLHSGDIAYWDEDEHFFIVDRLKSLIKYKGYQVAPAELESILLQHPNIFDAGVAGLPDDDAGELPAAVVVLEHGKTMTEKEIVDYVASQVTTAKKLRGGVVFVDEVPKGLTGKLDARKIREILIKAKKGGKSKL

[7] = target: T2, Heat shock factor protein 1 (Mus musculus, UniProt P38532); experiment: enhancement of HSF1-driven luciferase signal – cell-based, NIH3T3, luminescence, dose retest, confirmation (AID 435004); format: functional;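 also: stress induced by proteasome inhibitor MG132 added 30 min after compound; luciferase reporter driven by HSF1 response element in NIH3T3 cells; actives raise luminescence as potentiators of the MG132 stress response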
T2 sequence (P38532 whole entry): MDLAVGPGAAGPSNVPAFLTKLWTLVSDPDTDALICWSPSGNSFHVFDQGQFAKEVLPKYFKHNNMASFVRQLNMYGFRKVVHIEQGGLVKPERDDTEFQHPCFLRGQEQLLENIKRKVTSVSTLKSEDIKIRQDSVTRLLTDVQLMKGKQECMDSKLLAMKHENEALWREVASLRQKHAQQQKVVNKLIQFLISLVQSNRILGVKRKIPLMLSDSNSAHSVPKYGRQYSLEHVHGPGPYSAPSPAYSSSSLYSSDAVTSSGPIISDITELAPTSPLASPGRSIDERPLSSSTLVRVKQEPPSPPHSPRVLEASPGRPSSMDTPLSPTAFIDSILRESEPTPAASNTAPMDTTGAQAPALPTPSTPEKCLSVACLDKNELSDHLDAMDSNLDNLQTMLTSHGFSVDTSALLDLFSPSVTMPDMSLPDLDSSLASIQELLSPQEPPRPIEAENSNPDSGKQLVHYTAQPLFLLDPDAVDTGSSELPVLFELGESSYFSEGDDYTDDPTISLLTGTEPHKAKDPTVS

[8] = NIH3T3 cell viability loss – ATP luminescence, mouse fibroblasts, counter-screen, dose response (AID 2010); format: functional, cell-based;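 also: cells exposed to compound for about 90 hours before reading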
[9] = Trypanosoma cruzi growth suppression in host cells – NIH3T3 host cells, beta-gal luminescence, confirmation (AID 2044); format: functional, cell-based;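 also: intracellular parasites grown in NIH/3T3 mouse fibroblasts as host cells; luminescent beta-galactosidase reporter signal from transgenic T. cruzi replicating inside host cells; inhibitors lower the luminescence signal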

O=CNc1cc(-c2ccc(C(=O)NC3CC3)cc2)cn2c(-c3ccccc3)cnc12
IC50 (H9c2): > 79 µM (inactive)

CN1CCN(c2ccc(NC(=O)COc3ccccc3)cc2Cl)CC1
EC50 [1]: 0.229 µM (active) | EC50 [2]: 0.214 µM (active) | EC50 (H4): 66.9 µM (active)

CCn1nc(C(=O)OCC(=O)c2c[nH]c3ccccc23)c2ccccc2c1=O
IC50 (H9c2): > 79 µM (inactive) | IC50 [3]: 3.99 µM (not active)

COc1cc2c(c(OC)c1CC=C(C)C)C[C@H](c1ccc(O)cc1O)CO2 [GLYASPERIN D]
CC50 [4]: 15.3 µM (active)

N#Cc1ccc(S(=O)(=O)N2CCCN(c3nc4ccc(Cl)cc4s3)CC2)cc1
CC50 [4]: > 50 µM (active)

COc1ccc(N2CCN(C(=O)Cn3cnc4c(cnn4-c4ccccc4)c3=O)CC2)cc1
IC50 [3]: 4.18 µM (not active)

Cc1ccc(NC(=O)c2cc(S(=O)(=O)N3CCOCC3)cn2C)c(C)c1
EC50 [5]: > 112 µM (not active) | EC50 [6]: > 112 µM (not active)

COc1ccc(CCNC(=O)C2CCCN(Cc3nc(-c4ccccc4C)oc3C)C2)cc1OC (centres undefined)
EC50 [7]: > 260 µM (inactive)

c1csc(-c2nn3c(Cn4nnc5ccccc54)nnc3s2)c1
EC50 [5]: > 112 µM (not active) | EC50 [6]: > 112 µM (not active)

CC(C)(C)c1ccc(C(=O)NCc2ccco2)cc1
EC50 [1]: 31 µM (active) | EC50 [2]: 20.9 µM (active) | EC50 (H4): 13.7 µM (active)

Cc1cc(NC(=O)COc2nnc(-c3ccccc3)c3ccccc23)no1
IC50 (H9c2): 32.3 µM (inactive)

CC1CCN(C(=S)SCc2nc(N)nc(Nc3ccccc3)n2)CC1
CC50 [4]: 13.3 µM (active)

CCn1c(SCC(=O)N2CCCC(C)C2)nnc1-c1ccco1 (centres undefined)
EC50 [5]: > 112 µM (not active) | EC50 [6]: > 112 µM (not active)

Cc1cccc(NC(=O)CSc2cc(C)c(C#N)c3nc4ccccc4n23)c1
EC50 [7]: 6.87 µM (active)

COc1ccc(OCC(=O)NCc2nnc(O)c3ccccc23)cc1
IC50 (H9c2): > 79 µM (inactive)

COc1ccc(-c2cc3ccc(OCC(C)=O)cc3oc2=O)cc1
EC50 [7]: > 260 µM (inactive)

O=C1CN(c2ccccc2)C(=S)N1C(=O)c1ccccc1
EC50 [1]: 106 µM (active) | EC50 [2]: 57.7 µM (active) | EC50 (H4): 15.7 µM (inconclusive)

O=C(CSc1n[nH]c(-c2ccccc2)n1)c1ccccc1
EC50 [1]: 5.83 µM (active) | EC50 [2]: 15.3 µM (active) | EC50 (H4): 6.22 µM (active)

CCc1cccc(NC(=O)c2cnn(-c3ccccc3)c2C)c1
CC50 [4]: 29.9 µM (active)

CCCCc1c(O)nc(SCC(=O)N2CCOCC2)nc1O
EC50 [5]: > 112 µM (not active) | EC50 [6]: > 112 µM (not active)

Cn1c2ccc(F)cc2c2nnc(NN)nc21
IC50 (H9c2): > 79 µM (inactive)

N#Cc1cnc2sc3ccccc3n2c1=N
EC50 [1]: 10.6 µM (active) | EC50 [2]: 15.9 µM (active) | EC50 (H4): 11.7 µM (active)

CCN(C(=O)COC(=O)c1cc(-c2cccs2)nc2ccccc12)C1CCS(=O)(=O)C1 (centres undefined)
EC50 [5]: > 112 µM (not active) | EC50 [6]: > 112 µM (not active)

COc1cc(-c2c(-c3ccsc3)sc3ccccc23)cc(OC)c1OC
CC50 [4]: 33.7 µM (active)

Cc1ccc(Nc2c([N+](=O)[O-])nn(-c3ccc4c(c3)OCCO4)[n+]2[O-])c(Cl)c1
EC50 [8]: > 60 µM (not active) | IC50 [3]: 23.1 µM (not active) | EC50 [9]: 0.199 µM (active)

Cc1cccc(-c2cccc(NC(=O)C3CCCN(C(=O)c4cccnc4)C3)c2)c1 (centres undefined)
EC50 [7]: > 260 µM (inactive)
